According to PubChem BioAssay AID1963839 (Molecular Pharmacology Branch, DTP, NCI, 2024):
pIC50: −log10 of the molar value.

Tested on: 817829-284-R-J1-PDC complex spheroid viability
Test: Anticancer human tumor 817829-284-R-J1-PDC patient-derived colon adenocarcinoma cell line growth inhibition [POLQ]
Conditions: for pIC50: curve of first compound; for viability, T/C: stronger effect = lower value
Procedure, shortened: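 PDC + HUVEC + MSC complex spheroids; POLQ inhibitors ± partner drugs; top conc. at/near clinical Cmax, else 10 microM (SN-38 1 microM), half-log dilutions; 37 degrees C, 5% CO2.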

[1] = second compound 0.0316 µM, first compound 0.0316 µM
[2] = second compound 0.0316 µM, first compound 0.1 µM
[3] = second compound 0.0316 µM, first compound 0.316 µM
[4] = second compound 0.0316 µM, first compound 1 µM
[5] = second compound 0.0316 µM, first compound 3.16 µM
[6] = second compound 0.0316 µM, first compound 10 µM
[7] = second compound 0.1 µM, first compound 0.0316 µM
[8] = second compound 0.1 µM, first compound 0.1 µM
[9] = second compound 0.1 µM, first compound 0.316 µM
[10] = second compound 0.1 µM, first compound 1 µM
[11] = second compound 0.1 µM, first compound 3.16 µM
[12] = second compound 0.1 µM, first compound 10 µM
[13] = second compound 0.316 µM, first compound 0.0316 µM
[14] = second compound 0.316 µM, first compound 0.1 µM
[15] = second compound 0.316 µM, first compound 0.316 µM
[16] = second compound 0.316 µM, first compound 1 µM
[17] = second compound 0.316 µM, first compound 3.16 µM
[18] = second compound 0.316 µM, first compound 10 µM
[19] = second compound 1 µM, first compound 0.0316 µM
[20] = second compound 1 µM, first compound 0.1 µM
[21] = second compound 1 µM, first compound 0.316 µM
[22] = second compound 1 µM, first compound 1 µM
[23] = second compound 1 µM, first compound 3.16 µM
[24] = second compound 1 µM, first compound 10 µM
[25] = second compound 3.16 µM, first compound 0.0316 µM
[26] = second compound 3.16 µM, first compound 0.1 µM
[27] = second compound 3.16 µM, first compound 0.316 µM
[28] = second compound 3.16 µM, first compound 1 µM
[29] = second compound 3.16 µM, first compound 3.16 µM
[30] = second compound 3.16 µM, first compound 10 µM
[31] = second compound 10 µM, first compound 0.0316 µM
[32] = second compound 10 µM, first compound 0.1 µM
[33] = second compound 10 µM, first compound 0.316 µM
[34] = second compound 10 µM, first compound 1 µM
[35] = second compound 10 µM, first compound 3.16 µM
[36] = second compound 10 µM, first compound 10 µM
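Further: spheroids exposed to compounds for 7 days.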
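Wherever viability, T/C is given: 100% = DMSO vehicle-treated spheroids.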

**Q.** With `CC1COCCN1c1cc(-c2ccnn2C)c2ccnc(-c3ccn[nH]3)c2n1` (centres undefined) + Nc1ccc(C#CCN(C(=O)Cc2ncc(C(F)(F)F)cc2C(F)(F)F)c2ccc(F)cc2)nn1 as the compound, how does the pIC50 (second compound 0.0316 µM) read?
**A.** 7.34

**Q.** And the pIC50 (second compound 0.1 µM)?
**A.** 7.32

**Q.** What about the pIC50 (second compound 0.316 µM) of the same compound?
**A.** 7.38

**Q.** What about the pIC50 (second compound 1 µM) of the same compound?
**A.** 7.31

**Q.** And the pIC50 (second compound 3.16 µM)?
**A.** 7.27

**Q.** What about the pIC50 (second compound 10 µM) of the same compound?
**A.** 7.29

**Q.** What about the viability, T/C [1] of the same compound?
**A.** 66.6%

**Q.** What about the viability, T/C [2] of the same compound?
**A.** 15.1%

**Q.** And the viability, T/C [3]?
**A.** 5.55%

**Q.** And the viability, T/C [4]?
**A.** 3.95%

**Q.** What about the viability, T/C [5] of the same compound?
**A.** 3.46%

**Q.** What about the viability, T/C [6] of the same compound?
**A.** 3.51%

**Q.** And the viability, T/C [7]?
**A.** 69.3%

**Q.** What about the viability, T/C [8] of the same compound?
**A.** 16.2%

**Q.** What about the viability, T/C [9] of the same compound?
**A.** 5.6%

**Q.** And the viability, T/C [10]?
**A.** 3.72%

**Q.** What about the viability, T/C [11] of the same compound?
**A.** 3.57%

**Q.** And the viability, T/C [12]?
**A.** 2.68%

**Q.** What about the viability, T/C [13] of the same compound?
**A.** 60.5%

**Q.** What about the viability, T/C [14] of the same compound?
**A.** 16.4%

**Q.** What about the viability, T/C [15] of the same compound?
**A.** 5.61%

**Q.** And the viability, T/C [16]?
**A.** 3.98%

**Q.** What about the viability, T/C [17] of the same compound?
**A.** 3.56%

**Q.** And the viability, T/C [18]?
**A.** 2.61%

**Q.** What about the viability, T/C [19] of the same compound?
**A.** 70.6%

**Q.** What about the viability, T/C [20] of the same compound?
**A.** 15.2%

**Q.** And the viability, T/C [21]?
**A.** 6.24%

**Q.** And the viability, T/C [22]?
**A.** 4.01%

**Q.** And the viability, T/C [23]?
**A.** 3.75%

**Q.** What about the viability, T/C [24] of the same compound?
**A.** 3.12%

**Q.** And the viability, T/C [25]?
**A.** 72.8%

**Q.** What about the viability, T/C [26] of the same compound?
**A.** 23.1%

**Q.** And the viability, T/C [27]?
**A.** 5.89%

**Q.** What about the viability, T/C [28] of the same compound?
**A.** 4.04%

**Q.** What about the viability, T/C [29] of the same compound?
**A.** 3%

**Q.** And the viability, T/C [30]?
**A.** 3.74%

**Q.** And the viability, T/C [31]?
**A.** 73.9%

**Q.** And the viability, T/C [32]?
**A.** 16.9%

**Q.** What about the viability, T/C [33] of the same compound?
**A.** 5.59%

**Q.** And the viability, T/C [34]?
**A.** 3.74%

**Q.** What about the viability, T/C [35] of the same compound?
**A.** 3.56%

**Q.** And the viability, T/C [36]?
**A.** 2.98%

**Q.** `CC1COCCN1c1cc(C2(S(C)(=N)=O)CC2)nc(-c2ccnc3[nH]ccc23)n1` (centres undefined) + Nc1ccc(C#CCN(C(=O)Cc2ncc(C(F)(F)F)cc2C(F)(F)F)c2ccc(F)cc2)nn1 was tested. Which pIC50 (second compound 0.0316 µM) did it give?
**A.** 6.50

**Q.** And the pIC50 (second compound 0.1 µM)?
**A.** 6.36

**Q.** What about the pIC50 (second compound 0.316 µM) of the same compound?
**A.** 6.39

**Q.** What about the pIC50 (second compound 1 µM) of the same compound?
**A.** 6.31

**Q.** And the pIC50 (second compound 3.16 µM)?
**A.** 6.33

**Q.** What about the pIC50 (second compound 10 µM) of the same compound?
**A.** 6.51

**Q.** And the viability, T/C [1]?
**A.** 83.3%

**Q.** And the viability, T/C [2]?
**A.** 74.2%

**Q.** What about the viability, T/C [3] of the same compound?
**A.** 48.2%

**Q.** What about the viability, T/C [4] of the same compound?
**A.** 25.8%

**Q.** And the viability, T/C [5]?
**A.** 8.98%

**Q.** And the viability, T/C [6]?
**A.** 4.09%

**Q.** What about the viability, T/C [7] of the same compound?
**A.** 83.5%

**Q.** What about the viability, T/C [8] of the same compound?
**A.** 82.1%

**Q.** And the viability, T/C [9]?
**A.** 60.7%

**Q.** And the viability, T/C [10]?
**A.** 21.9%

**Q.** And the viability, T/C [11]?
**A.** 8.16%

**Q.** What about the viability, T/C [12] of the same compound?
**A.** 4.21%

**Q.** And the viability, T/C [13]?
**A.** 99.9%

**Q.** And the viability, T/C [14]?
**A.** 86.6%

**Q.** And the viability, T/C [15]?
**A.** 57.8%

**Q.** And the viability, T/C [16]?
**A.** 24.6%

**Q.** And the viability, T/C [17]?
**A.** 7.24%

**Q.** And the viability, T/C [18]?
**A.** 5.14%

**Q.** What about the viability, T/C [19] of the same compound?
**A.** 86.9%

**Q.** And the viability, T/C [20]?
**A.** 87.2%

**Q.** What about the viability, T/C [21] of the same compound?
**A.** 67.6%

**Q.** What about the viability, T/C [22] of the same compound?
**A.** 20.4%

**Q.** And the viability, T/C [23]?
**A.** 7.25%

**Q.** And the viability, T/C [24]?
**A.** 5.6%

**Q.** What about the viability, T/C [25] of the same compound?
**A.** 95.7%

**Q.** What about the viability, T/C [26] of the same compound?
**A.** 83.7%

**Q.** And the viability, T/C [27]?
**A.** 66%

**Q.** What about the viability, T/C [28] of the same compound?
**A.** 22.3%

**Q.** And the viability, T/C [29]?
**A.** 6.64%

**Q.** What about the viability, T/C [30] of the same compound?
**A.** 4.14%

**Q.** What about the viability, T/C [31] of the same compound?
**A.** 86.6%

**Q.** What about the viability, T/C [32] of the same compound?
**A.** 76.3%

**Q.** What about the viability, T/C [33] of the same compound?
**A.** 48.1%

**Q.** And the viability, T/C [34]?
**A.** 23.1%

**Q.** What about the viability, T/C [35] of the same compound?
**A.** 5.64%

**Q.** And the viability, T/C [36]?
**A.** 5.25%
